We go through 1 compound from patent publication US12459939B2 (SHANGHAI RINGENE BIOPHARMA CO., LTD., priority 2019, dated 2025).

The structures appear in SMILES notation.

The data set is described as follows: Metabolic stability in mouse liver microsomes. In kind it is in vitro ADME. Particulars: liver microsomes 0.5 mg/mL, NADPH, 1 μM compound, read-out: Mouse microsomal T1/2. As to the method:
(1) Metabolic stability test: 150 μL of liver microsomes (final concentration was 0.5 mg/mL) were subjected to metabolic stability incubation, the system containing NADPH (final concentration was 1 mM), 1 μM of the test compound and the positive control midazolam or the negative control atenolol, the reaction was terminated with acetonitrile containing tinidazole at 0 min, 5 min, 10 min, and 30 min, respectively, then the mixture was vortexed for 10 min, and centrifuged at 15000 rmp for 10 min, 50 μL of the supernatant was injected into 96 well. The metabolic stability of the compound was calculated by measuring the relative reduction of the original drug. (See Table 3 for specific values)
A general note: Liver microsomes are a subcellular fraction often used to study metabolism.

As to `Cc1cc(F)cc(C)c1Oc1ccc(C(C)(C)O)cc1-c1cn(C)c(=O)c2cc(C(=O)NC3CC(F)(F)C3)[nH]c12` [Embodiment 18, N-(3,3-difluorocyclobutyl)-7-(2-(4-fluoro-2,6-dimethylphenoxy)-5-(2-hydroxyprop-2-yl)phenyl)-5-methyl-4-oxo-4,5-dihydro-1H-pyrrolo[3,2-c] pyridine-2-amide], the half-life at 1 μM worked out at 1.27 h.
